Patent US4434151A, “Bifunctional chelating agents” (Medi-Physics, Inc., priority 1982, dated 1984)

Legend:
[1] = Organ uptake (biodistribution) of 99mTc activity in mice after intravenous administration; assay type: in vivo; conditions: i.v.; for Organ uptake of 99mTc, Carcass / Organ uptake of 99mTc, Intestines / Organ uptake of 99mTc, Kidney / Organ uptake of 99mTc, Liver / Organ uptake of 99mTc, Lung / Organ uptake of 99mTc, Stomach / Organ uptake of 99mTc, Tail: average of four animals ± SD
Protocol: (§1) The ^99m Tc complex used for the animal studies was prepared in Example 6 following both methods of reduction, stannous chloride or dithionite. The ^99m Tc-MGHA complexes labeled by either reduction method were tested in animals. The mass concentrations of the ^99m Tc complex administered to test animals were approximately 0.04 mg/kg body weight for rabbits and 13.0 mg/kg body weight for mice. The radioactivity administered to rabbits and mice were about 0.5 mCi and 1.5 mCi respectively. The pH of the injectant solution was approximately 5 to 6.
Nonfasted male mice (1CR strain) weighing 20-24 grams were administered in the tail vein with 0.2 mL of a ^99m Tc-complex solution. At 15, 30, 60 minutes post administration groups of four animals were sacrificed by cervical dislocation and selected organs removed for ^99m Tc assay in a gross ionization counting chamber. The percentage of the injected dose corrected for ^99m Tc decay was calculated for the various organs at each sacrifice time.
A ^99m Tc-MGHA complex prepared via a dithionite reduction of ^99m TcO4^- of Example 6 was administered to female albino mice weighing 20-24 gm. The test drug was administered through the lateral tail vein at a mass dose of approximately 13.0 mg/kg in a volume of 0.2 mL. The corresponding radioactive dose administered to each animal was 1.5 mCi. After injection, groups of four animals were sacrificed (cervical dislocation) at 15, 30 and 60 minutes. The liver, kidney, lung, heart, stomach and intestines (small and large) were removed and assayed for ^99m Tc activity in a gross ionization counting chamber. Also, the tails and remaining carcasses were individually assayed for ^99m Tc activity.
Knowing the amount of ^99m Tc activity administered (assaying for ^99m Tc in the syringe before and after injection) and the amount assayed in the various organs, the percentage of injected dose (% ID) was calculated as: [formula] All activities (Ci) were initially corrected for ^99m Tc decay back to a fixed starting time using the standard first order differential equation for decay correction (see below): […]
where N0 and N1 are initial and final activities (Ci) respectively. The half-life (T1/2) for ^99m Tc decay is 6.02 hr. The value of t is the elapsed time (hrs.) for the correction.
The results of ^99m Tc uptake in various organs and tissues in mice administered ^99m Tc-MGHA labeled via a dithionite reduction is given in Table 1.
A ^99m Tc-MGHA complex prepared via a stannous chloride reduction of 99mTcO.sbsb.4^- of Example 6 was administered to female albino mice weighing 20-24 gm. The same methods and procedures given in Example 19 were used to calculate the % ID for each organ.

[2] = Gamma camera imaging / regional areas of interest in rabbits after intravenous administration; assay type: in vivo, rabbits (New Zealand White); conditions: i.v.; for Gamma camera count densities (RAI): rabbits
Protocol: as §1
Nonanesthetized and nonfasted male rabbits (New Zealand White) weighing 3.0-3.5 kg were restrained in dorsal recumbancy approximately 2-3 cm from the face of the gamma camera. After intravenous administration of 0.1 mL of the ^99m Tc-labeled complex solution in the marginal ear vein, anterior images were stored by a dedicated computer during injection, and 5, 10, 15, 20 and 30 minutes following administration.
The ^99m Tc-complex prepared via a dithionate reduction of Example 6 was administered to male albino rabbits weighing 3.0-3.5 kg. The drug was injected into the marginal ear vein. The mass of drug administered was equivalent to ~0.04 mg/kg while the volume injected was 0.1 mL. The administered dose was ~0.5 mCi. Each test animal was restrained in dorsal recumbancy approximately 2-3 cm from the face of the gamma camera. Immediately after injection, 100-500 k counts were obtained from the gamma camera and stored on floppy disc. The computer controlled the maximum number of counts that could be stored per image. Sequential images were obtained and stored on disc at 5, 10, 15, 20 and 30 minutes following administration.
After all images were stored, quantitative image analysis was utilized to obtain count densities in regional areas of interest (RAI). The RAIs were delineated as distinct anatomical structures. Three distinct areas were observed.
A ^99m Tc-complex prepared via a stannous chloride reduction of Example 6 was administtered to male albino rabbits weighing 3.0-3.5 kg. […]

[3] = mice, dithionite reduction, 15 min.
[4] = mice, dithionite reduction, 30 min.
[5] = mice, dithionite reduction, 60 min.

## CNC(=O)C1CC[S][99Tc-]23(=[O])[S]CC[N]2CC(=O)[N]13 [^99m Tc-MGHA, [2-[[1-(2mercaptoethyl)-2-(methylamino)-2-oxoethyl]-N-(2-mercaptoethyl)glycinato-N,N',S,S']oxotechnetate-99m]
[1]; mice
  Excretion of activity from the body: rapid excretion of activity from the body
[1]; mice, 30 minutes
  Total remaining activity (% injected dose): approximately one-half of the injected dose
[1]; mice, SnCl2 reduction, 15 min.
  Organ uptake of 99mTc, Carcass: 17.4 ± 2.8 % Injected Dose
  Organ uptake of 99mTc, Intestines: 28.7 ± 6.1 % Injected Dose
  Organ uptake of 99mTc, Kidney: 3.3 ± .9 % Injected Dose
  Organ uptake of 99mTc, Liver: 13.3 ± 5.4 % Injected Dose
  Organ uptake of 99mTc, Lung: .9 ± .4 % Injected Dose
  Organ uptake of 99mTc, Stomach: .3 ± .4 % Injected Dose
  Organ uptake of 99mTc, Tail: 1.4 ± .7 % Injected Dose
[1]; mice, SnCl2 reduction, 30 min.
  Organ uptake of 99mTc, Carcass: 5.7 ± 2.9 % Injected Dose
  Organ uptake of 99mTc, Intestines: 27.3 ± 7.0 % Injected Dose
  Organ uptake of 99mTc, Kidney: 1.6 ± .4 % Injected Dose
  Organ uptake of 99mTc, Liver: 6.1 ± .9 % Injected Dose
  Organ uptake of 99mTc, Lung: .2 ± .2 % Injected Dose
  Organ uptake of 99mTc, Stomach: .6 ± .9 % Injected Dose
  Organ uptake of 99mTc, Tail: .14 ± .2 % Injected Dose
[1]; mice, SnCl2 reduction, 60 min.
  Organ uptake of 99mTc, Carcass: 12.4 ± 5.1 % Injected Dose
  Organ uptake of 99mTc, Intestines: 29.3 ± 10.4 % Injected Dose
  Organ uptake of 99mTc, Kidney: 2.3 ± .8 % Injected Dose
  Organ uptake of 99mTc, Liver: 7.7 ± 2.0 % Injected Dose
  Organ uptake of 99mTc, Lung: .6 ± .3 % Injected Dose
  Organ uptake of 99mTc, Stomach: .1 ± .2 % Injected Dose
  Organ uptake of 99mTc, Tail: .7 ± .3 % Injected Dose
[1]; mice, at the various time intervals examined
  Kidney uptake of activity over time: declining at the various time intervals examined
[1]; [3]
  Organ uptake of 99mTc, Carcass: 21.9 ± 2.9 % Injected Dose
  Organ uptake of 99mTc, Intestines: 16.8 ± 3.0 % Injected Dose
  Organ uptake of 99mTc, Kidney: 3.1 ± .6 % Injected Dose
  Organ uptake of 99mTc, Liver: 11.3 ± 1.0 % Injected Dose
  Organ uptake of 99mTc, Lung: .9 ± .2 % Injected Dose
  Organ uptake of 99mTc, Stomach: .3 ± .01 % Injected Dose
  Organ uptake of 99mTc, Tail: 1.7 ± 1.0 % Injected Dose
[1]; [4]
  Organ uptake of 99mTc, Carcass: 13.4 ± 5.3 % Injected Dose
  Organ uptake of 99mTc, Intestines: 20.5 ± 2.0 % Injected Dose
  Organ uptake of 99mTc, Kidney: 3.4 ± .5 % Injected Dose
  Organ uptake of 99mTc, Liver: 7.6 ± .9 % Injected Dose
  Organ uptake of 99mTc, Lung: .3 ± .1 % Injected Dose
  Organ uptake of 99mTc, Stomach: .1 ± .1 % Injected Dose
  Organ uptake of 99mTc, Tail: .3 ± .1 % Injected Dose
[1]; [5]
  Organ uptake of 99mTc, Carcass: 18.3 ± 2.5 % Injected Dose
  Organ uptake of 99mTc, Intestines: 16.9 ± 1.4 % Injected Dose
  Organ uptake of 99mTc, Kidney: 3.9 ± .6 % Injected Dose
  Organ uptake of 99mTc, Liver: 10.2 ± 1.6 % Injected Dose
  Organ uptake of 99mTc, Lung: .5 ± .3 % Injected Dose
  Organ uptake of 99mTc, Stomach: .8 ± .9 % Injected Dose
  Organ uptake of 99mTc, Tail: 1.1 ± .4 % Injected Dose
[1]; mice, sacrifice times greater than 15 minutes post injection
  Kidney uptake: little kidney uptake
[1]; mice, within the first 15 minutes
  Clearance of 99mTc activity out of the body: fast clearance out of the body within the first 15 minutes
[1]; test animals, indirect evidence
  Suggested route of 99mTc clearance: possible kidney clearance
[2]; male albino rabbits, dithionite reduction, ~0.5 mCi, up to 30 minutes
  Distinct areas observed in quantitative image analysis (RAI): The left and right kidneys and the bladder were clearly defined
[2]; SnCl2 reduction method
  Gamma camera count densities (RAI): significant count densities in regions where the right and left kidneys were visualized
[2]; dithionite reduction method
  Gamma camera count densities (RAI): significant count densities in regions where the right and left kidneys were visualized
